From the supplement of paper PMC10307832

Assays:
Test in all cases: relative viability (nuclei count vs DMSO), 5 days (fraction); higher = more cells survive
Imatinib + Luminespib = compound: Cc1ccc(NC(=O)c2ccc(CN3CCN(C)CC3)cc2)cc1Nc1nccc(-c2cccnc2)n1 [Imatinib] + CCNC(=O)c1noc(-c2cc(C(C)C)c(O)cc2O)c1-c1ccc(CN2CCOCC2)cc1 [Luminespib] (partner 0.01 µM)
Summary of the method: (§1)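 The day after seeding in 1536-well plates, lung cancer cell lines were treated by pin tool with a single drug, or with a fixed anchor-drug dose together with five library-drug doses (not always all listed) in √10 steps. After 5 days, a combined fix-and-stain solution (final 0.05% Triton X-100, 1% formaldehyde, 1 ug/ml Hoechst) was added. Nuclei counted on 4× images gave relative viability as treated counts over vehicle counts, reported as the median of duplicate plates.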

Imatinib + Pemetrexed = compound: Cc1ccc(NC(=O)c2ccc(CN3CCN(C)CC3)cc2)cc1Nc1nccc(-c2cccnc2)n1 [Imatinib] + Nc1nc2[nH]cc(CCc3ccc(C(=O)N[C@@H](CCC(=O)O)C(=O)O)cc3)c2c(=O)[nH]1 [Pemetrexed] (partner 0.2 µM)
Summary of the method: as §1

Imatinib + Bortezomib = compound: Cc1ccc(NC(=O)c2ccc(CN3CCN(C)CC3)cc2)cc1Nc1nccc(-c2cccnc2)n1 [Imatinib] + CC(C)C[C@H](NC(=O)[C@H](Cc1ccccc1)NC(=O)c1cnccn1)B(O)O [Bortezomib] (partner 0.002 µM)
Summary of the method: as §1

Imatinib = compound: Cc1ccc(NC(=O)c2ccc(CN3CCN(C)CC3)cc2)cc1Nc1nccc(-c2cccnc2)n1 [Imatinib]
Summary of the method: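 Five library-drug doses, separated by factors of √10, were pinned into 1536-well plates holding lung cancer cell lines after an overnight stay at 37 °C. Cells were fixed, permeabilised and Hoechst-stained in one step after 5 days without medium change, then imaged at 4×. Viability compares treated-well with vehicle-well nuclei, counted in MetaXpress, as a median across plates. Passing plates had control CV below 25% and at least one doubling.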

| Cell Line | relative viability (Imatinib + Luminespib; first compound 0.02 µM) | relative viability (Imatinib + Luminespib; first compound 0.06325 µM) | relative viability (Imatinib + Luminespib; first compound 0.2 µM) | relative viability (Imatinib + Luminespib; first compound 0.6325 µM) | relative viability (Imatinib + Luminespib; first compound 2 µM) | relative viability (Imatinib + Pemetrexed; first compound 0.02 µM) | relative viability (Imatinib + Pemetrexed; first compound 0.06325 µM) | relative viability (Imatinib + Pemetrexed; first compound 0.6325 µM) | relative viability (Imatinib + Pemetrexed; first compound 2 µM) | relative viability (Imatinib + Bortezomib; first compound 0.02 µM) | relative viability (Imatinib + Bortezomib; first compound 0.06325 µM) | relative viability (Imatinib + Bortezomib; first compound 0.2 µM) | relative viability (Imatinib + Bortezomib; first compound 0.6325 µM) | relative viability (Imatinib + Bortezomib; first compound 2 µM) | relative viability (Imatinib; 0.02 µM) | relative viability (Imatinib; 0.06325 µM) | relative viability (Imatinib; 0.2 µM) | relative viability (Imatinib; 0.6325 µM) | relative viability (Imatinib; 2 µM) | relative viability (Imatinib + Pemetrexed; first compound 0.2 µM) |
| --- | --- | --- | --- | --- | --- | --- | --- | --- | --- | --- | --- | --- | --- | --- | --- | --- | --- | --- | --- | --- |
| SW 1573 | 0.23 | 0.348 | 0.293 | 0.26 | 0.233 | 0.898 | 0.354 | 0.86 | 0.811 | 1.05 | 1.43 | 1.2 | 1.03 | 1.12 | 1.16 | 0.79 | 1.13 | 1.01 | 1.02 | – |
| NCI-H2228 | 0.147 | – | 0.126 | 0.12 | 0.152 | 0.344 | 0.389 | 0.345 | 0.33 | 1.13 | 0.782 | 1.14 | 1.01 | 0.895 | – | 0.927 | 1.33 | – | 1.08 | 0.303 |
| 201T | 1.09 | – | 1.11 | 0.96 | 1.03 | 0.317 | 0.24 | 0.284 | 0.31 | 1.08 | – | 1.13 | – | 1.06 | 1.01 | – | 1.02 | 0.997 | 0.965 | 0.391 |
| NCI-H2023 | 1.04 | 1.03 | 1.07 | 1.17 | 1.1 | 0.224 | 0.318 | – | 0.27 | 1.08 | 0.425 | 1.16 | 0.925 | 1.02 | 1.06 | 0.78 | 1.14 | – | 0.985 | 0.304 |
| NCI-H2126 | 0.955 | – | 0.979 | – | 0.959 | 0.667 | 0.524 | 0.634 | 0.725 | 1.12 | – | 1.19 | 1.05 | 1.12 | 1.02 | 0.696 | 1.08 | 0.955 | 0.936 | 0.704 |
| COR-L 105 | 0.696 | – | 0.844 | 0.632 | 0.732 | 1.33 | 1.27 | 1.06 | 0.983 | 1.08 | 0.871 | 0.73 | 0.636 | – | 1.06 | 0.979 | 1 | 0.891 | 0.9 | 1.13 |
| UMC-11 | 1.19 | 1.22 | 1.04 | – | 0.96 | 0.906 | 0.972 | 0.811 | 0.781 | 0.707 | 0.841 | 0.939 | 0.844 | 0.668 | 1.03 | 0.987 | 1.03 | 1.1 | 0.941 | 0.864 |
| SK-LU-1 | 0.212 | 0.222 | 0.201 | 0.243 | 0.188 | 1.04 | 1.2 | 1.03 | 1.04 | 1.59 | 1.22 | 1.31 | 1.1 | 1.26 | 1.08 | – | 1.15 | – | 1.11 | 1.1 |
| NCI-H1650 | 0.189 | 0.2 | 0.184 | 0.192 | 0.193 | 0.414 | 0.405 | 0.335 | 0.416 | 0.211 | 0.204 | 0.22 | 0.22 | 0.233 | 0.919 | 0.778 | 1.03 | 0.922 | 0.993 | 0.362 |
| NCI-H2085 | 0.548 | 0.628 | 0.421 | 0.463 | 0.541 | 0.837 | 0.892 | – | 0.834 | 1.05 | 0.902 | 1.08 | 1.13 | 1.04 | – | 0.826 | 1.01 | 1.04 | 1.02 | 0.917 |
| RERF-LC-KJ | 1.27 | 1.3 | 1.3 | 1.03 | 1.31 | 0.448 | 0.369 | 0.487 | 0.43 | 1.13 | 1.1 | 1.32 | – | 0.909 | 1.1 | 0.884 | 1.06 | 0.985 | 0.953 | 0.507 |
| LCLC-103H | 1.03 | 0.8 | 1.04 | 0.892 | 0.863 | 0.458 | 0.445 | 0.464 | 0.504 | 1.08 | – | – | 1.13 | – | 1.02 | 0.806 | 1.12 | 0.964 | – | 0.472 |
| NCI-H1792 | 0.519 | 0.321 | 0.432 | 0.447 | 0.365 | 1.06 | 0.931 | – | 0.748 | 1.21 | 0.951 | 0.675 | 0.861 | 0.935 | 0.946 | 0.921 | 1.03 | 0.948 | 0.87 | 0.848 |
| PC-14 | 0.16 | – | 0.232 | – | 0.165 | 0.143 | 0.16 | 0.131 | 0.137 | 0.923 | 0.911 | 0.96 | 0.949 | 0.844 | 1.08 | 0.726 | 1.17 | 1 | 0.953 | 0.135 |
| A-427 | 1.06 | – | 0.868 | 0.903 | 0.9 | 1.05 | 1.08 | – | 0.971 | 1.11 | – | 1.11 | 1.05 | 0.853 | 1.04 | – | 0.989 | 0.974 | 0.969 | 1.02 |
| BEN | 0.402 | – | 0.29 | 0.355 | 0.156 | 0.832 | 0.835 | 0.89 | 0.879 | 0.975 | 0.641 | 0.796 | 0.79 | 0.581 | 1.09 | 0.82 | 0.897 | 0.871 | 0.912 | 0.691 |
| NCI-H650 | 0.887 | 0.67 | 0.641 | 0.796 | 0.769 | 0.986 | – | 0.951 | 0.875 | 0.893 | 0.823 | 0.805 | 1.03 | 0.616 | 1 | 0.779 | 1.02 | 1.1 | 0.824 | 0.834 |
